Structures can show the parent of a compound that is named as a salt.
Target: T1, proton pump (H+/K+-ATPase) (Sus scrofa, UniProt P19156)
T1 construct: Gastric vesicles were prepared from hog stomach via centrifugal separation; from tissue; host or cells: hog stomach (gastric vesicles, method of Rabon et al. 1988)
Experiment: Measurement of inhibitory effects on proton pump (H+/K+-ATPase) activities
Assay type: biochemical
Settings: hog gastric vesicles, K+-specific H+/K+-ATPase activity, Tris-HCl buffer pH 7.4, 37° C. for 40 minutes, malachite green Pi readout
Experimental: 1) Preparation of Gastric Vesicles
Gastric vesicles were prepared from hog stomach via centrifugal separation (Edd C. Rabon et al., Preparation of Gastric H^+,K^+-ATPase, Methods in enzymology, vol. 157 Academic Press Inc., (1988), pp. 649-654). The protein contents of the thus prepared gastric vesicles were quantitated by Bicinchoninic Acid (BCA) kit.
2) Measurement of Inhibitory Effects on Proton Pump (H^+/K^+-ATPase) Activities
The inhibitory effects of the compounds of the present invention against proton pump activities were measured using a 96-well plate. In this assay, the K^+-specific H^+/K^+-ATPase activities were calculated based on the difference between the H^+/K^+-ATPase activity in the presence of K^+ and that in the absence of K. In the 96-well plate, 0.5% dimethyl sulfoxide (DMSO) in buffer was added to the negative and positive control groups, and the diluted compounds of the present invention were added to the test groups. All assays were performed in a reaction volume of 100 μl at room temperature. The reaction buffer solution (60 mmol/l Tris-HCl buffer, pH 7.4) including the hog gastric vesicles was added with DMSO and the compounds at various concentrations, and then further added with 10 μl of 10 mmol/1 adenosine triphosphate Tris buffer solution (60 mmol/l Tris-HCl buffer, pH 7.4) to initiate an enzyme reaction. […] The amount of monophosphate (Pi) in the reaction was measured at 570 nm using a micro plate reader (FLUOstar Omega, BMG LABTECH). The inhibition rates (%) were determined from the activity values of control groups and those of test compounds at various concentrations, and the […] of the test compounds were calculated based on the respective inhibition value (%) using the Logistic 4-parameter function of Sigmaplot 8.0 program.

T1 sequence (P19156 whole entry): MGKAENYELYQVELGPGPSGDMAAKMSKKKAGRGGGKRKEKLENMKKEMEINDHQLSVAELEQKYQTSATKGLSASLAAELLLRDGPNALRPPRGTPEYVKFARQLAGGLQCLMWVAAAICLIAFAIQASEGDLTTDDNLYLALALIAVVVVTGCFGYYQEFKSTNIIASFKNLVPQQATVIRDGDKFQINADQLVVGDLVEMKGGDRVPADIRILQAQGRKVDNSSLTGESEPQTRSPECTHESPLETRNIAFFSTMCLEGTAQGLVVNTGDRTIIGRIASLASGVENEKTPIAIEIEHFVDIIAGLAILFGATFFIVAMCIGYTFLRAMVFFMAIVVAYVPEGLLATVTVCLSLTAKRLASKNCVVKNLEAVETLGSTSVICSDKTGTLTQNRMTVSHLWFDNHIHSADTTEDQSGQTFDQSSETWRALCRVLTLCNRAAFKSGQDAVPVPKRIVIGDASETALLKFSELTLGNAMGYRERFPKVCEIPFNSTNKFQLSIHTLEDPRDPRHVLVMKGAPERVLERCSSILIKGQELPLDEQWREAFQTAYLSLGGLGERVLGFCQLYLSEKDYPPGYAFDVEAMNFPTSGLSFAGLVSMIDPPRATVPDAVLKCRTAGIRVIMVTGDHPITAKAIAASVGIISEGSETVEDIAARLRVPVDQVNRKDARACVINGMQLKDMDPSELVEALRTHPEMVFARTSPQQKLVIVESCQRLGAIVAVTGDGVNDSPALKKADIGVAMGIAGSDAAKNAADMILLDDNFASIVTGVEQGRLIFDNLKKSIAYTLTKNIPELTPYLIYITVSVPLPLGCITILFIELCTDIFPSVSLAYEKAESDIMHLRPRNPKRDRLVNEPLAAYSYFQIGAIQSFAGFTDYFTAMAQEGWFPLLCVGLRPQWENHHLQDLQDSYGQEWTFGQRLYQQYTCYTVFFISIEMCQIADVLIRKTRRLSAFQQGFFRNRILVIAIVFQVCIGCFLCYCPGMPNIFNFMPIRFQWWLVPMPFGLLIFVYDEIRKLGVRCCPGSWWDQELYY
T1 sequence (P18434 whole entry partner): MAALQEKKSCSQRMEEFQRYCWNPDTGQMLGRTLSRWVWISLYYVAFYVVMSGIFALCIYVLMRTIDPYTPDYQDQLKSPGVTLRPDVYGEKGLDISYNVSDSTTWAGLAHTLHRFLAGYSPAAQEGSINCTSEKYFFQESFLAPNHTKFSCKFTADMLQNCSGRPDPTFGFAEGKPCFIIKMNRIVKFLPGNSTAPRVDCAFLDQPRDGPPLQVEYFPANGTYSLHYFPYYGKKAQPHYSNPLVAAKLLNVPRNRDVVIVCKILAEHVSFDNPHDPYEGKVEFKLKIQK

Compound | IC50 [nM]
CCOc1c(F)ccc(Nc2ccc3c(CNC)cn(S(=O)(=O)c4cccnc4)c3c2)c1F [Example 69, N-(3-ethoxy-2,4-difluorophenyl)-3-((methylamino)methyl)-1-(pyridin-3-ylsulfonyl)-1H-indol-6-amine hydrochloride] | 2350
CNCc1cn(S(=O)(=O)c2cccnc2)c2cc(Nc3ccc(OC)c(F)c3F)ccc12 [Example 70, N-(2,3-difluoro-4-methoxyphenyl)-3-((methylamino)methyl)-1-(pyridin-3-ylsulfonyl)-1H-indol-6-amine hydrochloride] | 300
CCOc1ccc(Nc2ccc3c(CNC)cn(S(=O)(=O)c4cccnc4)c3c2)c(F)c1F [Example 71, N-(4-ethoxy-2,3-difluorophenyl)-3-((methylamino)methyl)-1-(pyridin-3-ylsulfonyl)-1H-indol-6-amine hydrochloride] | 430
CNCc1cn(S(=O)(=O)c2cccnc2)c2cc(Nc3cc(F)c(F)cc3C)ccc12 [Example 73, N-(4,5-difluoro-2-methylphenyl)-3-((methylamino)methyl)-1-(pyridin-3-ylsulfonyl)-1H-indol-6-amine hydrochloride] | 160
CNCc1cn(S(=O)(=O)c2cccnc2)c2cc(Nc3cc(F)c(F)cc3F)ccc12 [Example 74, 3-((methylamino)methyl)-1-(pyridin-3-ylsulfonyl)-N-(2,4,5-trifluorophenyl)-1H-indol-6-amine hydrochloride] | 450
CNCc1cn(S(=O)(=O)c2cccnc2)c2cc(Nc3cc(C)c(Cl)cc3C)ccc12 [Example 75, N-(4-chloro-2,5-dimethylphenyl)-3-((methylamino)methyl)-1-(pyridin-3-ylsulfonyl)-1H-indol-6-amine hydrochloride] | 290
CNCc1cn(S(=O)(=O)c2cccnc2)c2cc(Nc3cc(Cl)c(Cl)cc3Cl)ccc12 [Example 76, 3-((methylamino)methyl)-1-(pyridin-3-ylsulfonyl)-N-(2,4,5-trichlorophenyl)-1H-indol-6-amine hydrochloride] | 350
CNCc1cn(S(=O)(=O)c2cccnc2)c2cc(Nc3cc(OC)c(Cl)cc3Cl)ccc12 [Example 77, N-(2,4-dichloro-5-methoxyphenyl)-3-((methylamino)methyl)-1-(pyridin-3-ylsulfonyl)-1H-indol-6-amine hydrochloride] | 350
CNCc1cn(S(=O)(=O)c2cccnc2)c2cc(Nc3cc(F)c(C(F)(F)F)cc3F)ccc12 [Example 78, N-(2,5-difluoro-4-(trifluoromethyl)phenyl)-3-((methylamino)methyl)-1-(pyridin-3-ylsulfonyl)-1H-indol-6-amine hydrochloride] | 2260
CNCc1cn(S(=O)(=O)c2cccnc2)c2cc(Nc3cc(F)c(Br)cc3F)ccc12 [Example 79, N-(4-bromo-2,5-difluorophenyl)-3-((methylamino)methyl)-1-(pyridin-3-ylsulfonyl)-1H-indol-6-amine hydrochloride] | 1380
CNCc1cn(S(=O)(=O)c2cccnc2)c2cc(Nc3c(C)cc(C)cc3C)ccc12 [Example 80, N-mesityl-3-((methylamino)methyl)-1-(pyridin-3-ylsulfonyl)-1H-indol-6-amine hydrochloride] | 170
CNCc1cn(S(=O)(=O)c2cccnc2)c2cc(Nc3c(C)cc(F)cc3C)ccc12 [Example 81, N-(4-fluoro-2,6-dimethylphenyl)-3-((methylamino)methyl)-1-(pyridin-3-ylsulfonyl)-1H-indol-6-amine hydrochloride] | 310
CNCc1cn(S(=O)(=O)c2cccnc2)c2cc(Nc3c(F)cc(F)cc3F)ccc12 [Example 82, 3-((methylamino)methyl)-1-(pyridin-3-ylsulfonyl)-N-(2,4,6-trifluorophenyl)-1H-indol-6-amine hydrochloride] | 450
CNCc1cn(S(=O)(=O)c2cccnc2)c2cc(Nc3c(F)cc(F)cc3Cl)ccc12 [Example 83, N-(2-chloro-4,6-difluorophenyl)-3-((methylamino)methyl)-1-(pyridin-3-ylsulfonyl)-1H-indol-6-amine hydrochloride] | 1030
CNCc1cn(S(=O)(=O)c2cccnc2)c2cc(Nc3c(Cl)cc(F)cc3Cl)ccc12 [Example 84, N-(2,6-dichloro-4-fluorophenyl)-3-((methylamino)methyl)-1-(pyridin-3-ylsulfonyl)-1H-indol-6-amine hydrochloride] | 530
CNCc1cn(S(=O)(=O)c2cccnc2)c2cc(Nc3c(C)cc(Cl)cc3C)ccc12 [Example 85, N-(4-chloro-2,6-dimethylphenyl)-3-((methylamino)methyl)-1-(pyridin-3-ylsulfonyl)-1H-indol-6-amine hydrochloride] | 370
CNCc1cn(S(=O)(=O)c2cccnc2)c2cc(Nc3c(F)cc(Cl)cc3F)ccc12 [Example 86, N-(4-chloro-2,6-difluorophenyl)-3-((methylamino)methyl)-1-(pyridin-3-ylsulfonyl)-1H-indol-6-amine hydrochloride] | 650
CNCc1cn(S(=O)(=O)c2cccnc2)c2cc(Nc3c(Cl)cc(Cl)cc3Cl)ccc12 [Example 87, 3-((methylamino)methyl)-1-(pyridin-3-ylsulfonyl)-N-(2,4,6-trichlorophenyl)-1H-indol-6-amine hydrochloride] | 400
CNCc1cn(S(=O)(=O)c2cccnc2)c2cc(Nc3c(F)cc(OC)cc3F)ccc12 [Example 88, N-(2,6-difluoro-4-methoxyphenyl)-3-((methylamino)methyl)-1-(pyridin-3-ylsulfonyl)-1H-indol-6-amine hydrochloride] | 430
CCOc1cc(F)c(Nc2ccc3c(CNC)cn(S(=O)(=O)c4cccnc4)c3c2)c(F)c1 [Example 89, N-(4-ethoxy-2,6-difluorophenyl)-3-((methylamino)methyl)-1-(pyridin-3-ylsulfonyl)-1H-indol-6-amine hydrochloride] | 870
CNCc1cn(S(=O)(=O)c2cccnc2)c2cc(Nc3c(C)cc(Br)cc3C)ccc12 [Example 90, N-(4-bromo-2,6-dimethylphenyl)-3-((methylamino)methyl)-1-(pyridin-3-ylsulfonyl)-1H-indol-6-amine hydrochloride] | 710
CNCc1cn(S(=O)(=O)c2cccnc2)c2cc(Nc3c(F)cc(F)cc3Br)ccc12 [Example 91, N-(2-bromo-4,6-difluorophenyl)-3-((methylamino)methyl)-1-(pyridin-3-ylsulfonyl)-1H-indol-6-amine hydrochloride] | 870
CNCc1cn(S(=O)(=O)c2cccnc2)c2cc(Nc3c(F)cc(Br)cc3F)ccc12 [Example 92, N-(4-bromo-2,6-difluorophenyl)-3-((methylamino)methyl)-1-(pyridin-3-ylsulfonyl)-1H-indol-6-amine hydrochloride] | 1510
CNCc1cn(S(=O)(=O)c2cccnc2)c2cc(Nc3c(F)cc(Br)cc3Br)ccc12 [Example 93, N-(2,4-dibromo-6-fluorophenyl)-3-((methylamino)methyl)-1-(pyridin-3-ylsulfonyl)-1H-indol-6-amine hydrochloride] | 2220
CNCc1cn(S(=O)(=O)c2cccnc2)c2cc(Nc3c(C)cc(Cl)cc3[N+](=O)[O-])ccc12 [Example 94, N-(4-chloro-2-methyl-6-nitrophenyl)-3-((methylamino)methyl)-1-(pyridin-3-ylsulfonyl)-1H-indol-6-amine hydrochloride] | 780
CNCc1cn(S(=O)(=O)c2cccnc2)c2cc(Nc3c(F)c(F)cc(F)c3F)ccc12 [Example 95, 3-((methylamino)methyl)-1-(pyridin-3-ylsulfonyl)-N-(2,3,5,6-tetrafluorophenyl)-1H-indol-6-amine hydrochloride] | 480
CNCc1cn(S(=O)(=O)c2cccnc2)c2cc(Nc3c(F)c(F)c(C(F)(F)F)c(F)c3F)ccc12 [Example 96, 3-((methylamino)methyl)-1-(pyridin-3-ylsulfonyl)-N-(2,3,5,6-tetrafluoro-4-(trifluoromethyl)phenyl)-1H-indol-6-amine hydrochloride] | 1730
CNCc1cn(S(=O)(=O)c2cccnc2)c2cc(Nc3ccc4c(c3)OCCO4)ccc12 [Example 97, N-(2,3-dihydrobenzo[b][1,4]dioxin-6-yl)-3-((methylamino)methyl)-1-(pyridin-3-ylsulfonyl)-1H-indol-6-amine hydrochloride] | 670
CNCc1cn(S(=O)(=O)c2cccnc2)c2cc(Nc3ncccc3C)ccc12 [Example 98, 3-((methylamino)methyl)-N-(3-methylpyridin-2-yl)-1-(pyridin-3-ylsulfonyl)-1H-indol-6-amine hydrochloride] | 1920
CNCc1cn(S(=O)(=O)c2cccnc2)c2cc(Nc3ncccc3F)ccc12 [Example 99, N-(3-fluoropyridin-2-yl)-3-((methylamino)methyl)-1-(pyridin-3-ylsulfonyl)-1H-indol-6-amine hydrochloride] | 1380

Reference: US9676714B2, “Sulfonylindole derivatives and method for preparing the same” (Daewoong Pharmaceutical Co., Ltd., priority 2013, dated 2017)
